Among the data in patent publication US20230141403A1 (Hoffmann-La Roche Inc., priority 2020, published 2023) are IC90 values, retold here.

Structures are written as SMILES. Counter-ions that a name gives are not always drawn.

The first test concerns Acinetobacter baumannii ATCC17961. Kind of test: Antimicrobial susceptibility testing: 90% growth inhibitory concentration (IC90) determination. The test is classed as cell-based. As to conditions: 90% growth inhibitory concentration; Iso-Sensitest broth, optical density at 600 nm over 16h, 35±2° C.; read-out: AB ATCC 17961 IC90. The procedure:
Antimicrobial Susceptibility Testing:
90% Growth Inhibitory Concentration (IC90) Determination
The in vitro antimicrobial activity of the compounds was determined according to the following procedure:
The assay used a 10-points Iso-Sensitest broth medium to measure quantitatively the in vitro activity of the compounds against Acinetobacter baumannii ATCC17961 or ATCC17978.
Stock compounds in DMSO were serially twofold diluted (e.g. range from 50 to 0.097 μM final concentration) in 384 wells microtiter plates and inoculated with 49 μl the bacterial suspension in Iso-Sensitest medium to have a final cell concentration of ˜5×10^(5) CFU/ml in a final volume/well of 50 ul/well. Microtiter plates were incubated at 35±2° C.
Bacterial cell growth was determined with the measurement of optical density at λ=600 nm each 20 minutes over a time course of 16h. Growth inhibition was calculated during the logarithmic growth of the bacterial cells with determination of the concentration inhibiting 50% (IC50) and 90% (IC90) of the growth.
Table 2 provides the 90% growth inhibitory concentrations (IC90) in micromoles per liter of the compounds of present invention obtained against the strain Acinetobacter baumannii ATCC17961.
As for `COc1ccc(-c2cnc3c(Nc4ccc(S(C)(=O)=NCCCNC(=O)[C@H]5C[C@H](O)CN5)c(C)c4)nccn23)c(F)c1F` (mixture of isomers) [Example 32, rac-(2R,4S)—N-(3-(((4-((3-(2,3-difluoro-4-methoxyphenyl)imidazo[1,2-a]pyrazin-8-yl)amino)-2-methylphenyl)(methyl)oxo)-l6-sulfaneylidene)amino)propyl)-4-hydroxypyrrolidine-2-carboxamide dihydrochloride], the IC90 was 0.17 µM.

The test is the same for the next values; noted with them: Acinetobacter baumannii, ATCC17961, 16 h, 90% growth inhibitory concentration; Iso-Sensitest broth, optical density at 600 nm over 16h, 35±2° C.; read-out: AB ATCC 17961 IC90.
For `CN=S(C)(=O)c1ccc(Nc2nccn3c(-c4ccc(OCC#N)c(F)c4F)cnc23)cc1C` (stereo not drawn) [Example 25, 2-(4-(8-((4-(N,S-dimethylsulfonimidoyl)-3-methylphenyl)amino)imidazo[1,2-a]pyrazin-3-yl)-2,3-difluorophenoxy) acetonitrile], the IC90 came out at 0.048 µM.

As to `CCc1cc(Nc2nccn3c(-c4ccc(OC)c(F)c4F)cnc23)ccc1S(=O)(=O)N1CCN(C(=O)C2CCNCC2)CC1` [Example 108, (4-((4-((3-(2,3-difluoro-4-methoxyphenyl)imidazo[1,2-a]pyrazin-8-ylamino)-2-ethylphenyl)sulfonyl)piperazin-1-yl)(piperidin-4-yl)methanone hydrochloride], the IC90 was 0.22 µM.

As to `CCc1cc(Nc2nccn3c(-c4ccc(OC)c(F)c4F)cnc23)ccc1S(=O)(=O)N1CCN(C(=O)[C@@H]2CCNC2)CC1` [Example 107, (R)-(4-(4-((3-(2,3-difluoro-4-methoxyphenyl)imidazo[1,2-a]pyrazin-8-yl)amino)-2-ethylphenyl)sulfonyl) piperazin-1-yl)(pyrrolidin-3-yl)methanone hydrochloride], the IC90 was determined as 0.2 µM.

`COc1ccc(-c2cnc3c(Nc4ccc(NC(C)=O)cc4)nccn23)cc1` [Example 15, N-[4-[[3-(4-methoxyphenyl)imidazo[1,2-a]pyrazin-8-yl]amino]phenyl]acetamide]: the IC90 worked out at 0.6 µM.

Regarding `COc1ccc(-c2cnc3c(Nc4ccc(S(=O)(=O)NCCOCCN(C)C)c(Cl)c4)nccn23)c(F)c1F` [Example 97], the IC90 is 0.18 µM.

As to `COc1ccc(-c2cnc3c(Nc4ccc(Cn5ccnc5)c(C)c4)nccn23)c(F)c1F` [Example 118, 3-(2,3-difluoro-4-methoxy-phenyl)-N-[4-(imidazol-1-ylmethyl)-3-methyl-phenyl]imidazo[1,2-a]pyrazin-8-amine], the 90% effect concentration (IC90) is 0.12 µM.

With `CCc1cc(Nc2nccn3c(-c4ccc(OC)c(F)c4F)cnc23)ccc1S(=O)(=O)N1CCNCC1` [Example 103, 3-(2,3-difluoro-4-methoxyphenyl)-N-(3-ethyl-4-(piperazin-1-ylsulfonyl)phenyl) imidazo[1,2-a]pyrazin-8-amine hydrochloride], the IC90 turned out to be 0.5 µM.

With `CN=S(C)(=O)c1ccc(Nc2nccn3c(-c4ccc(OC)c(F)c4F)cnc23)cc1` (stereo not drawn) [Example 69, 3-(2,3-difluoro-4-methoxyphenyl)-N-(4-(N,S-dimethylsulfonimidoyl)phenyl)imidazo[1,2-a]pyrazin-8-amine], the IC90 worked out at 0.2 µM.

Turning to `COc1ccc(-c2cnc3c(Nc4ccc(S(=O)(=O)N5CCN(CCCN(C)C)CC5)c(C)c4)nccn23)c(F)c1F` [Example 98], the IC90 came to 0.29 µM.

As for `COc1ccc(-c2cnc3c(Nc4ccc(S(=O)(=O)C[C@H]5CC[C@H](N)CC5)c(Cl)c4)nccn23)c(F)c1F` [Example 116, rac-N-(4-((((lr,4r)-4-aminocyclohexyl)methyl)sulfonyl)-3-chlorophenyl)-3-(2,3-difluoro-4-methoxyphenyl)imidazol[1,2-a]pyrazin-8-amine], the IC90 stood at 0.22 µM.

As to `COc1ccc(-c2cnc3c(Nc4ccc([S@@](C)(=O)=NCCCN)c(C)c4)nccn23)c(F)c1F` [Example 28, (+)-((3-aminopropyl)imino) (4-((3-(2,3-difluoro-4-methoxyphenyl)imidazo[1,2-a]pyrazin-8-yl)amino)-2-methylphenyl) (methyl)-16-sulfanone], the IC90 was determined as 0.048 µM.

`Cc1cc(Nc2nccn3c(-c4ccc(Oc5ccccn5)c(F)c4F)cnc23)ccc1OCCOCCOCCN` [Example 122, N-(4-(2-(2-(2-aminoethoxy)ethoxy)ethoxy)-3-methylphenyl)-3-(2,3-difluoro-4-(pyridin-2-yloxy)phenyl)imidazo[1,2-a]pyrazin-8-amine]: the 90% effect concentration (IC90) turned out to be 0.65 µM.

For `NCCOCC1CC(=O)N(c2ccc(Nc3nccn4c(-c5ccc(OC(F)F)cc5)cnc34)cc2)C1` (stereo not drawn) [Example 64, 4-((2-aminoethoxy)methyl)-1-(4-((3-(4-(difluoromethoxy)phenyl)imidazo[1,2-a]pyrazin-8-yl)amino)phenyl)pyrrolidin-2-one], the IC90 turned out to be 0.12 µM.

Take `CN=S(=O)(c1ccc(Nc2nccn3c(-c4ccc(OC)c(F)c4F)cnc23)cc1C)C1CCN(C(=O)[C@@H]2C[C@@H](O)CN2)CC1` (stereo partly drawn) [Example 73, (4-(4-((3-(2,3-difluoro-4-methoxyphenyl)imidazo[1,2-a]pyrazin-8-yl)amino)-N,2-dimethylphenylsulfonimidoyl)piperidin-1-yl)((2S,4R)-4-hydroxypyrrolidin-2-yl)methanone]: the IC90 worked out at 0.33 µM.

For the molecule `COc1ccc(-c2cnc3c(Nc4ccc(S(=O)(=O)NCCOCCN(C)C)c(C)c4)nccn23)c(F)c1F` [Example 99, 4-((3-(2,3-difluoro-4-methoxyphenyl)imidazo[1,2-a]pyrazin-8-yl)amino)-N-(2-(2-(dimethylamino)ethoxy)ethyl)-methylbenzene sulfonamide], the IC90 was found to be 0.28 µM.

As to `COc1ccc(-c2cnc3c(Nc4ccc([S@](C)(=O)=NCCCNC(=O)[C@@H]5C[C@@H](O)CN5)c(C)c4)nccn23)c(F)c1F` [Example 29, (2S,4R)—N-(3-(((−)-(4-((3-(2,3-difluoro-4-methoxyphenyl)imidazo[1,2-a]pyrazin-s-yl)amino)-2-methylphenyl)(methyl)(oxo)-l6-sulfaneylidene)amino)propyl)-4-hydroxypyrrolidine-2-carboxamide], the IC90 is 0.18 µM.

Regarding `CN=S(=O)(CCCN)c1ccc(Nc2nccn3c(-c4ccc(OC)c(F)c4F)cnc23)cc1` (stereo not drawn) [Example 71, N-(4-(3-amino-N-methylpropylsulfonimidoyl)phenyl)-3-(2,3-difluoro-4-methoxyphenyl)imidazo[1,2-a]pyrazin-8-amine], the concentration for an effect of 90% (IC90) was found to be 0.086 µM.

The test is the same for the next values; noted with them: Acinetobacter baumannii, ATCC17961, 16 h, read-out: AB ATCC 17961 IC90 (uM).
With `COc1ccc(-c2cnc3c(Nc4ccc(S(=O)(=O)NCCOCCN)cc4)nccn23)c(F)c1F` [Example 102, N-(2-(2-aminoethoxy)ethyl)-4-(3-(2,3-difluoro-4-methoxyphenyl)imidazo [1,2-a]pyrazin-8-yl)amino) benzenesulfonamide hydrochloride], the IC90 came to 0.39 µM.

For the molecule `COc1ccc(-c2cnc3c(Nc4ccc(S(C)(=O)=NCCCN)cc4)nccn23)c(F)c1F` (stereo not drawn) [Example 68, N-[4-[N-(3-aminopropyl)-S-methyl-sulfonimidoyl]phenyl]-3-(2,3-difluoro-4-methoxy-phenyl)imidazo[1,2-a]pyrazin-8-amine; formic acid], the concentration for an effect of 90% (IC90) is 0.43 µM.

Consider `CCc1cc(Nc2nccn3c(-c4ccc(OC)c(F)c4F)cnc23)ccc1S(C)(=O)=NCCCN` (stereo not drawn) [Example 70, N-[4-[N-(3-aminopropyl)-S-methyl-sulfonimidoyl]-3-ethyl-phenyl]-3-(2,3-difluoro-4-methoxy-phenyl)imidazo[1,2-a]pyrazin-8-amine; formic acid], for which the IC90 amounted to 0.19 µM.

By IC90 is commonly meant the concentration at which the effect reaches the 90% level.
